Here are results for 2 molecules from patent US6441019B2, “Cyclocarbamate and cyclic amide derivatives” (Wyeth, priority 1999, dated 2002).

With `CC1(C)OC(=O)Nc2cc(-c3cccc(Cl)c3)sc21` [Example 2, 6-(3-chlorophenyl)-1,4-dihydro-4,4-dimethyl-2H-thieno[3,2-d][1,3]oxazine-2-one], the melting point fell in the range of 123 to 125 °C. The result for `CC1(C)OC(=O)Nc2sc(-c3cccc(Cl)c3)cc21` [Example 1, 6-(3-chlorophenyl)-1,4-dihydro-4,4-dimethyl-2H-thieno [2,3-d][1,3]oxazine-2-one] reads 149 to 150 °C.
